Measurements as given in ChEMBL document CHEMBL1150443, “Synthesis and ion-binding properties of an immobilized bis-cysteine peptide” (Bioorg Med Chem Lett, 1992).
Active and inactive are the calls of the source. The rule behind the calls is not given here.

Columns and labels:
[1] = Binding constant of the ion pair ( sodium picrate salt) to the peptide-matrix was calculated from the spectrophotometric determination of the free Na+ picrate salt after equilibration with the immobilized peptide in trifluoroethanol
[2] = Binding constant of the ion pair ( potassium picrate salt) to the peptide-matrix was calculated from the spectrophotometric determination of the free K+ picrate salt after equilibration with the immobilized peptide in trifluoroethanol; NA=No affinity
[3] = Binding constant of the ion pair ( lithium picrate salt) to the peptide-matrix was calculated from the spectrophotometric determination of the free Li+ picrate salt after equilibration with the immobilized peptide in trifluoroethanol; NA=No affinity
[4] = Binding constant of the ion pair ( lithium picrate salt) to the peptide-matrix was calculated from the spectrophotometric determination of the free Na+ picrate salt after equilibration with the immobilized peptide in trifluoroethanol
[5] = Binding constant of the ion pair ( lithium picrate salt) to the peptide-matrix was calculated from the spectrophotometric determination of the free Li+ picrate salt after equilibration with the immobilized peptide in trifluoroethanol
[6] = Binding constant of the ion pair ( lithium picrate salt) to the peptide-matrix was calculated from the spectrophotometric determination of the free […] picrate salt after equilibration with the immobilized peptide in trifluoroethanol; NA=No affinity

Structure (SMILES)	KNa [1]	Activity [2]	Activity [3]	Log K [4]	Log K [5]	Activity [6]
CC(=O)N[C@@H]1CSSC[C@@H](NC(C)=O)C(=O)N2CCC[C@@H]2C(=O)N[C@H](C(C)C)C(=O)N[C@H](C(=O)O)CSSC[C@@H](C(N)=O)NC(=O)[C@@H](C(C)C)NC(=O)[C@H]2CCCN2C1=O	5200 M⁻¹	inactive	inactive			
CC(=O)N[C@@H]1CSSC[C@@H](NC(C)=O)C(=O)N2CCC[C@@H]2C(=O)N[C@H](C(C)C)C(=O)N[C@H](C(N)=O)CSSC[C@@H](C(N)=O)NC(=O)[C@@H](C(C)C)NC(=O)[C@H]2CCCN2C1=O				2.11	2.6	inactive
